Consider 9 molecules from patent US20260015350A1, “AZAQUINAZOLINE PAN-KRAS INHIBITORS” (Mirati Therapeutics, Inc., priority 2022, published 2026).

In experiment [1] the target is T1, KRas^G12V (Homo sapiens, UniProt P01116, G12V).
T1 construct: Biotinylated KRas (corresponding to amino acids 1-169, produced at Accelegan Inc.); biotin (biotinylated); purchased Accelegan Inc
Briefly: KRas binding assay (TR-FRET tracer displacement), KRas G12V. (TR-FRET usually uses a lanthanide donor and a delayed reading to cut background.)

The test system of experiment [2] is KRas-mediated phosphorylation of ERK in H727 cells. Nature of the experiment: Inhibition of KRas-mediated phosphorylation of ERK (Cisbio HTRF pERK), H727 cells. The experiment is classed as cell-based. The note with it: Homo sapiens, NCI-H727, H727 cells; HTRF pERK. In a few lines:
(§1)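 6,000 cells/well; cpd 10 uM top, 3-fold x10, 0.8% DMSO final; 3 hr incubation; Min ctrl Trametinib 0.2 uM; lysis 40 min 4° C shaking; d2 + Cryptate Ab mix, 2 hr RT; HTRF read.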

Experiment [3] concerns KRas-mediated phosphorylation of ERK in HCT116 cells. Nature of the experiment: Inhibition of KRas-mediated phosphorylation of ERK (Cisbio HTRF pERK), HCT116 cells. The experiment is classed as cell-based. The note with it: Homo sapiens, HCT-116, HTRF pERK. A digest of the protocol:
as §1

Experiment [4] concerns KRas-mediated phosphorylation of ERK in H358 cells. Briefly: Inhibition of KRas-mediated phosphorylation of ERK (Cisbio HTRF pERK), H358 cells. The experiment is classed as cell-based. To be noted: Homo sapiens, NCI-H358, HTRF pERK. A digest of the protocol:
as §1

In experiment [5] the test system is KRas-mediated phosphorylation of ERK in H460 cells. Nature of the experiment: Inhibition of KRas-mediated phosphorylation of ERK (Cisbio HTRF pERK), H460 cells. The experiment is classed as cell-based. The note with it: Homo sapiens, NCI-H460, HTRF pERK. In a few lines:
as §1

For experiment [6], the target named is T2, KRas^G12R (Homo sapiens, UniProt P01116, G12R).
T2 construct: Biotinylated KRas (corresponding to amino acids 1-169, produced at Accelegan Inc.); biotin (biotinylated); purchased Accelegan Inc
Nature of the experiment: KRas binding assay (TR-FRET tracer displacement), KRas G12R.

Experiment [7] deals with KRas-mediated phosphorylation of ERK in MKN1 cells. Nature of the experiment: Inhibition of KRas-mediated phosphorylation of ERK (Cisbio HTRF pERK), MKN1 cells. The experiment is classed as cell-based. To be noted: Homo sapiens, MKN-1. A digest of the protocol: (§2)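 HTRF pERK read-out; 6,000 cells/well, RPMI_10% FBS, overnight 37° C./5% CO2; 4 h covered incubation at RT before reading.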

Experiment [8] has as its system KRas-mediated phosphorylation of ERK in A549 cells. Nature of the experiment: Inhibition of KRas-mediated phosphorylation of ERK (Cisbio HTRF pERK), A549 cells. The experiment is classed as cell-based. To be noted: Homo sapiens, HTRF pERK. A digest of the protocol: as §1
Experiment [9] deals with T3, KRas^G12D (Homo sapiens, UniProt P01116, G12D).
T3 construct: Biotinylated KRas (corresponding to amino acids 1-169, produced at Accelegan Inc.); biotin (biotinylated); purchased Accelegan Inc
Nature of the experiment: KRas binding assay (TR-FRET tracer displacement), KRas G12D.

The test system of experiment [10] is KRas-mediated phosphorylation of ERK in PSN1 cells. Nature of the experiment: Inhibition of KRas-mediated phosphorylation of ERK (Cisbio HTRF pERK), PSN1 cells. The experiment is classed as cell-based. To be noted: Homo sapiens. In a few lines:
as §2

Experiment [11] concerns KRas-mediated phosphorylation of ERK in AsPC-1 cells. Briefly: Inhibition of KRas-mediated phosphorylation of ERK (Cisbio HTRF pERK), AsPC-1 cells. The experiment is classed as cell-based. The note with it: Homo sapiens, ASPC1, AsPC-1 cells; HTRF pERK. In a few lines: as §1

Bounds are passed on as bounds.

T2 sequence (P01116 1-169 isoform P01116-2 G12R): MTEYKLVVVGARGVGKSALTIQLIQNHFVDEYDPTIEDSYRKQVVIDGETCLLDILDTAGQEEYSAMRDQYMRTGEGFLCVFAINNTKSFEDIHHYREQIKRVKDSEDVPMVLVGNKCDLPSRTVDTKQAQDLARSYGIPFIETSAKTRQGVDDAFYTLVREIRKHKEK
T1 sequence (P01116 1-169 isoform P01116-2 G12V): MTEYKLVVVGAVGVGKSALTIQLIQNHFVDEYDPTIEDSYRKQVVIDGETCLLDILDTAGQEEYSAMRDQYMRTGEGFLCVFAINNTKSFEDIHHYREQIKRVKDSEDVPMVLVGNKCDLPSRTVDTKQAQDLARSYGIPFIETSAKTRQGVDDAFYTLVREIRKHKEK
T3 sequence (P01116 1-169 isoform P01116-2 G12D): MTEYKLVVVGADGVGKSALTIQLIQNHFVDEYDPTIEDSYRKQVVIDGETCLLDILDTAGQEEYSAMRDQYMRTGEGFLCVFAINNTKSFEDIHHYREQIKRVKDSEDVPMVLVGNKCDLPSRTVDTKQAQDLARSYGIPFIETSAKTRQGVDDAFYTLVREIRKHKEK

Regarding `CCc1c(F)ccc2cc(O)cc(-c3ncc4c(N5CCC[C@@](C)(O)C5)nc(OCC56CCCN5CC(=C(F)F)C6)nc4c3F)c12` (stereo partly drawn) [Example 792, (3R)-1-(2-((2-(difluoromethylene)tetrahydro-1H-pyrrolizin-7a(5H)-yl)methoxy)-7-(8-ethyl-7-fluoro-3-hydroxynaphthalen-1-yl)-8-fluoropyrido[4,3-d]pyrimidin-4-yl)-3-methylpiperidin-3-ol], the IC50 (as a rule, the midpoint of a concentration-inhibition curve) in experiment [1] is under 2 nM; in experiment [2], 32 nM; in experiment [3] it was 13 nM; in experiment [4], 8 nM; in experiment [5] it was 4 nM; in experiment [6], 2 nM. Further, the IC50 is 2 nM in experiment [7]; 9 nM in experiment [8]; 2 nM in experiment [9]; 744 nM in experiment [10]; 4 nM in experiment [11].
Regarding `CCc1c(F)ccc2cc(O)cc(-c3ncc4c(N5CC6CCC(COCCO)(C6)C5)nc(OC[C@@]56CCCN5C[C@H](F)C6)nc4c3F)c12` (stereo partly drawn) [Example 840, 5-ethyl-6-fluoro-4-(8-fluoro-2-(((2R,7aS)-2-fluorotetrahydro-1H-pyrrolizin-7a(5H)-yl)methoxy)-4-(1-((2-hydroxyethoxy)methyl)-3-azabicyclo[3.2.1]octan-3-yl)pyrido[4,3-d]pyrimidin-7-yl)naphthalen-2-ol], the IC50 in experiment [1] came to 4 nM; in experiment [2] it was 299 nM; in [3], 239 nM; in [4], 180 nM; in experiment [5], 145 nM; in experiment [6] it was 7 nM. For the same molecule, the IC50 in experiment [7] was 38 nM; in experiment [8] it was 422 nM; in experiment [9], 9 nM; in experiment [10], over 10000 nM; in experiment [11], 575 nM.
With `C[C@@H]1C[C@@H]1c1c(Cl)cc(O)cc1-c1ncc2c(N3CCC[C@@](C)(O)C3)nc(OC[C@@]34CCCN3C[C@H](F)C4)nc2c1F` [Example 805, (R)-1-(7-(3-chloro-5-hydroxy-2-((1S,2R)-2-methylcyclopropyl)phenyl)-8-fluoro-2-(((2R,7aS)-2-fluorotetrahydro-1H-pyrrolizin-7a(5H)-yl)methoxy)pyrido[4,3-d]pyrimidin-4-yl)-3-methylpiperidin-3-ol], the IC50 in [1] was under 2 nM; in [2], 29 nM; in experiment [3], 24 nM; in experiment [4] it was 8 nM; in experiment [5], 10 nM; in [6] it was 3 nM. Also, the IC50 in [7] was 1 nM; in [8], 23 nM; in experiment [9] it was under 2 nM; in experiment [10] it was 812 nM; in experiment [11], 13 nM.
For the molecule `CCc1c(F)ccc2cc(O)cc(-c3ncc4c(N5C[C@H]6CC[C@@H](C5)[C@H]6O)nc(OC[C@@]56CCCN5C[C@H](F)C6)nc4c3F)c12` [Example 848, (1R,5S,8S)-3-(7-(8-ethyl-7-fluoro-3-hydroxynaphthalen-1-yl)-8-fluoro-2-(((2R,7aS)-2-fluorotetrahydro-1H-pyrrolizin-7a(5H)-yl)methoxy)pyrido[4,3-d]pyrimidin-4-yl)-3-azabicyclo[3.2.1]octan-8-ol], the IC50 worked out at 9 nM in experiment [1]; 896 nM in experiment [2]; 496 nM in [3]; 310 nM in experiment [4]; 275 nM in experiment [5]; 12 nM in [6]. Besides, the IC50 in experiment [7] is 100 nM; in experiment [8], 809 nM; in experiment [9], 39 nM; in experiment [10], over 10000 nM; in experiment [11], 2060 nM.
`CCc1c(F)ccc2cc3[nH]ncc3c(-c3ncc4c(N5C[C@@H]6C[C@H](C5)[C@H](O)C6)nc(OC[C@@]56CCCN5C[C@H](F)C6)nc4c3F)c12` [Example 825, (1R,5R,6R)-3-(7-(5-ethyl-6-fluoro-1H-benzo[f]indazol-4-yl)-8-fluoro-2-(((2R,7aS)-2-fluorotetrahydro-1H-pyrrolizin-7a(5H)-yl)methoxy)pyrido[4,3-d]pyrimidin-4-yl)-3-azabicyclo[3.2.1]octan-6-ol]: the IC50 in [1] is under 2 nM; in experiment [2], 56 nM; in [3], 369 nM; in experiment [4], 50 nM; in experiment [5] it was 98 nM; in [6], 3 nM. The IC50 in experiment [7] was 36 nM; in experiment [8], 83 nM; in experiment [9], 6 nM; in experiment [10] it was 5920 nM; in [11] it was 180 nM.
`C[C@@H]1C[C@@H]1c1c(Cl)cc2[nH]ncc2c1-c1ncc2c(N3CCC[C@]4(C3)NC(=O)NC4=O)nc(OCC34CCCN3CCC4)nc2c1F` (atropisomer, axis not shown) [Example 887, (R)-7-(7-((R)-6-chloro-5-((1S,2R)-2-methylcyclopropyl)-1H-indazol-4-yl)-8-fluoro-2-((tetrahydro-1H-pyrrolizin-7a(5H)-yl)methoxy)pyrido[4,3-d]pyrimidin-4-yl)-1,3,7-triazaspiro[4.5]decane-2,4-dione]: the IC50 was 3 nM in [1]; over 10000 nM in [2]; over 10000 nM in [3]; 2540 nM in [4]; 7040 nM in experiment [5]; 2 nM in [6]. In addition, the IC50 was 1240 nM in experiment [7]; over 10000 nM in experiment [8]; 5 nM in experiment [9]; over 10000 nM in [10]; over 10000 nM in [11].
`C[C@@]1(O)CCCN(c2nc(OC[C@@]34CCCN3C[C@H](F)C4)nc3c(F)c(-c4ccc(F)c5sc(N)c(C#N)c45)ncc23)C1` [Example 912, 2-amino-7-fluoro-4-(8-fluoro-2-(((2R,7aS)-2-fluorotetrahydro-1H-pyrrolizin-7a(5H)-yl)methoxy)-4-((R)-3-hydroxy-3-methylpiperidin-1-yl)pyrido[4,3-d]pyrimidin-7-yl)benzo[b]thiophene-3-carbonitrile]: the IC50 in experiment [1] came out at 69 nM; in [2], 3310 nM; in experiment [3] it was 1830 nM; in experiment [4], 800 nM; in experiment [5], 2050 nM; in experiment [6], 85 nM. Further, the IC50 is 504 nM in experiment [7]; 2820 nM in experiment [8]; 45 nM in experiment [9]; over 10000 nM in experiment [10]; 2310 nM in experiment [11].
Regarding `CCc1c(F)ccc2cc(O)cc(-c3ncc4c(N5C[C@H]6CC[C@@](C(=O)NC)(C5)C6(F)F)nc(OC[C@@]56CCCN5C[C@H](F)C6)nc4c3F)c12` [Example 907, (1S,5R)-3-(7-(8-ethyl-7-fluoro-3-hydroxynaphthalen-1-yl)-8-fluoro-2-(((2R,7aS)-2-fluorotetrahydro-1H-pyrrolizin-7a(5H)-yl)methoxy)pyrido[4,3-d]pyrimidin-4-yl)-8,8-difluoro-N-methyl-3-azabicyclo[3.2.1]octane-1-carboxamide], the IC50 in [1] came to 23 nM; in experiment [2], 922 nM; in [3], 1580 nM; in [4], 325 nM; in experiment [5], 590 nM; in experiment [6] it was 18 nM. Further, the IC50 in experiment [7] was 137 nM; in experiment [8] it was 827 nM; in [9], 88 nM; in [10] it was over 10000 nM; in experiment [11], 2040 nM.
As to `CCc1c(F)ccc2cc(O)cc(-c3ncc4c(N5CC6CCC(COCCOC)(C6)C5)nc(OC[C@@]56CCCN5C[C@H](F)C6)nc4c3F)c12` (stereo partly drawn) [Example 857, 5-ethyl-6-fluoro-4-(8-fluoro-2-(((2R,7aS)-2-fluorotetrahydro-1H-pyrrolizin-7a(5H)-yl)methoxy)-4-(1-((2-methoxyethoxy)methyl)-3-azabicyclo[3.2.1]octan-3-yl)pyrido[4,3-d]pyrimidin-7-yl)naphthalen-2-ol], the IC50 was determined as 6 nM in experiment [1]; 352 nM in [2]; 410 nM in experiment [3]; 369 nM in experiment [4]; 144 nM in experiment [5]; 9 nM in experiment [6]. Besides, the IC50 in [7] was 6 nM; in experiment [8] it was 611 nM; in [9] it was 19 nM; in experiment [10], over 10000 nM; in experiment [11] it was 967 nM.
